Experimental data taken from US20230041563A1, “N-(1,3,4-OXADIAZOL-2-YL)ARYLCARBOXAMIDES OR SALTS THEREOF, PREPARATION METHODS, HERBICIDAL COMPOSITIONS AND USES THEREOF” (priority 2018, published 2023).
Where two headings read alike, the source gives them in different places.

Tested on: weeds
Experiment: Actual control effects and combined effects of mixtures of active ingredients (i) and (ii), stem-leaf treatment, Gowing method
Assay type: in vivo
Details: 20 days; for pest or weed control at 9 g/ha: (ii) 0.6 g a.i./mu
Procedure: According to the actual control effect and the property of the herbicides, the balance of the formula and other factors, the optimal ratio was determined. In the calculation formula: X represents the fresh weight inhibition rate when the active ingredient (i) is used in an amount of P; and Y represents the fresh weight inhibition rate when the active ingredient (ii) is used in an amount of Q. The statistical results are shown in Tables 9-11 below.

[1] = 480 h, Echinochloa phyllopogon, (ii) 3 g a.i./mu, stem-leaf treatment, read-out: Control effect of (ii) alone at corresponding dose
[2] = Echinochloa phyllopogon, (ii) 3 g a.i./mu
[3] = Monochoria vaginalis, (ii) 3 g a.i./mu
[4] = Monochoria vaginalis, (ii) 3 g a.i./mu, stem-leaf treatment
[5] = Leptochloa chinensis, (ii) 3 g a.i./mu

For Cc1ccccc1CO[C@@H]1C[C@@]2(C(C)C)CC[C@]1(C)O2 (racemic) [Cinmethylin], the pest or weed control at 45 g/ha [1] was 13.2%, the pest or weed control at […] (480 h, Echinochloa phyllopogon, (ii) 15 g a.i./mu, read-out: Control effect of (ii) alone at corresponding dose) was 54.5% and the “Control effect of (ii) alone at corresponding dose” value (from here on “Control effect of (ii) alone”) [2] was 13.2%.
With O=C(O)CCCOc1ccc(Cl)cc1Cl [2,4-D butyric acid] the “Control effect of (ii) alone” value [3] was 23.5%, the “Control effect of (ii) alone” value [4] was 23.5% and the “Control effect of (ii) alone” value (Monochoria vaginalis, (ii) 15 g a.i./mu) was 65.3%. The “Control effect of (ii) alone” value (Monochoria vaginalis, (ii) 15 g a.i./mu, stem-leaf treatment) was 65.3%.
In the case of CC(C)c1nn(C(=O)NC(C)(C)C)c(=O)n1N [Amicarbazone], the “Control effect of (ii) alone” value [3] is reported as 23.3%, the “Control effect of (ii) alone” value [4] is reported as 23.3% and the “Control effect of (ii) alone” value (Monochoria vaginalis, (ii) 10 g a.i./mu) is reported as 51.6%. The “Control effect of (ii) alone” value (Monochoria vaginalis, (ii) 10 g a.i./mu, stem-leaf treatment) was 51.6%.
In the case of COP(=S)(OC)SCC(=O)N(c1ccc(Cl)cc1)C(C)(C)C [Anilofos], the pest or weed control at 45 g/ha (Dinebra chinensis, 480 h, Leptochloa chinensis, (ii) 3 g a.i./mu, stem-leaf treatment, read-out: Control effect of (ii) alone at corresponding dose) is reported as 30.8%, the pest or weed control at 450 g/ha (Dinebra chinensis, 480 h, Leptochloa chinensis, (ii) 30 g a.i./mu, read-out: Control effect of (ii) alone at corresponding dose) is reported as 62.6% and the “Control effect of (ii) alone” value [5] is reported as 30.8%.
With CCNc1nc(Cl)nc(NC(C)C)n1 [Atrazine] the pest or weed control at 9 g/ha (480 h, Echinochloa phyllopogon, read-out: Control effect of (ii) alone at corresponding dose) was 2.3%, the pest or weed control at […] (480 h, Echinochloa phyllopogon, (ii) 15 g a.i./mu, stem-leaf treatment, read-out: Control effect of (ii) alone at corresponding dose) was 30.6% and the “Control effect of (ii) alone” value (Echinochloa phyllopogon, (ii) 15 g a.i./mu) was 30.6%.
With CCC(Oc1ccc(F)c(C(F)(F)F)c1)C(=O)NCc1ccccc1 (stereo not drawn) [Beflubutamid] the “Control effect of (ii) alone” value (Monochoria vaginalis, (ii) 1.5 g a.i./mu) was 15.3%, the “Control effect of (ii) alone” value (Monochoria vaginalis, (ii) 5 g a.i./mu) was 40.3% and the “Control effect of (ii) alone” value (Monochoria vaginalis, (ii) 5 g a.i./mu, stem-leaf treatment) was 40.3%.
In the case of CC(C)N1C(=O)c2ccccc2NS1(=O)=O [Bentazone], the pest or weed control at 27 g/ha (480 h, Cyperus difformis, (ii) 1.8 g a.i./mu, read-out: Control effect of (ii) alone at corresponding dose) is reported as 18.2%, the pest or weed control at 135 g/ha (480 h, Cyperus difformis, (ii) 9 g a.i./mu, stem-leaf treatment, read-out: Control effect of (ii) alone at corresponding dose) is reported as 40.4% and the “Control effect of (ii) alone” value (Cyperus difformis, (ii) 9 g a.i./mu) is reported as 40.4%.
CCN(CC)C(=O)SCc1ccc(Cl)cc1 [Benthiocarb] was tested, and the “Control effect of (ii) alone” value (Cyperus difformis, (ii) 3 g a.i./mu) was 15.2%, the “Control effect of (ii) alone” value (Cyperus difformis, (ii) 3 g a.i./mu, stem-leaf treatment) was 15.2% and the “Control effect of (ii) alone” value (Cyperus difformis, (ii) 30 g a.i./mu) was 50.3%.
With CS(=O)(=O)c1ccc(C(=O)C2=C(Sc3ccccc3)C3CCC(C3)C2=O)c(Cl)c1 (stereo not drawn) [Benzobicylon] the “Control effect of (ii) alone” value [5] was 26.8%, the “Control effect of (ii) alone” value (Leptochloa chinensis, (ii) 3 g a.i./mu, stem-leaf treatment) was 26.8% and the “Control effect of (ii) alone” value (Leptochloa chinensis, (ii) 15 g a.i./mu) was 68.2%. For the same compound, the “Control effect of (ii) alone” value (Leptochloa chinensis, (ii) 15 g a.i./mu, stem-leaf treatment) was 68.2%.
In the case of COc1cc(OC)nc(Oc2cccc(Oc3nc(OC)cc(OC)n3)c2C(=O)O)n1 [Bispyribac-sodium], the pest or weed control at 9 g/ha (480 h, Cyperus difformis, read-out: Control effect of (ii) alone at corresponding dose) is reported as 39.5%, the pest or weed control at 15 g/ha (480 h, Cyperus difformis, (ii) 1 g a.i./mu, stem-leaf treatment, read-out: Control effect of (ii) alone at corresponding dose) is reported as 70.4% and the “Control effect of (ii) alone” value (Cyperus difformis, (ii) 1 g a.i./mu) is reported as 70.4%.
CCC(C)n1c(=O)[nH]c(C)c(Br)c1=O (stereo not drawn) [Bromacil] was tested, and the pest or weed control at 45 g/ha [1] was 12.8%, the pest or weed control at 450 g/ha (480 h, Echinochloa phyllopogon, (ii) 30 g a.i./mu, read-out: Control effect of (ii) alone at corresponding dose) was 59.7% and the “Control effect of (ii) alone” value [2] was 12.8%.
CCCCCCCC(=O)Oc1c(Br)cc(C#N)cc1Br [Bromoxynil octanoate] was tested, and the pest or weed control at 9 g/ha (480 h, Sagittaria trifolia L., read-out: Control effect of (ii) alone at corresponding dose) was 6.4%, the pest or weed control at 45 g/ha (480 h, Sagittaria trifolia, (ii) 3 g a.i./mu, stem-leaf treatment, read-out: Control effect of (ii) alone at corresponding dose) was 12.5% and the “Control effect of (ii) alone” value (Sagittaria trifolia L., (ii) 3 g a.i./mu) was 12.5%.
